# Results: patent US4902811A, “Benzodioxane prostacyclin analogs” (Shionogi & Co., Ltd., priority 1987, dated 1990)
# Like-named read-outs stand apart in the source and are kept apart here.
# Tested on: hydrochloric acid-ethanol-induced gastric ulcer
# Assay: Effect against hydrochloric acid ethanol-induced gastric ulcer (percent suppression of lesion index, oral)
# Format: in vivo, male JCL-SD rats or CRJ-SD rats
# Conditions: for inhibition in vivo at 0.03 mg/kg / inhibition in vivo at 0.1 mg/kg: Rattus norvegicus, po, 1 h, read-out: Percent Suppression (P.S.); for inhibition in vivo at 0.1 mg/kg: 100 μg/kg
# Procedure: To male JCL-SD rats or CRJ-SD rats (weight: 220 g to 260 g) which have been fasted for 24 hours is administered orally 1 ml of 150 mM hydrochloric acid-60% ethanol. After an hour, the stomachs are excised. The ulcer size is determined by measuring the length of each lesion using a stereoscopic microscope and the sum of individual lesion length is expressed as lesion index. The vehicle (1% to 10% ethanol) and the test compounds are administered orally 30 minutes before the hydrochloric acid-ethanol administration. The percent suppression is calculated from the lesion indexes of treated versus non-treated animals.
# [1] = JCL-SD rats, oral, 30 μg/kg, 30 min before HCl-ethanol
# [2] = JCL-SD rats, oral, 30 min before HCl-ethanol
SMILES,inhibition in vivo at 0.03 mg/kg [1],other results
CCCCC(C)CC(O)C=CC1C(O)CC2Oc3c(OCC(=O)OC)cccc3OC21 (centres unmarked) [Idd-a],–,Percent Suppression (P.S.) [1]: 32%
COC(=O)COc1cccc2c1OC1CC(O)C(C=CC(O)CC(C)CCC=C(C)C)C1O2 (centres unmarked) [Ibk-a],81%,–
COC(=O)COc1cccc2c1OC1CC(O)C(C=CC(O)CC(C)CCC=C(C)C)C1O2 (centres unmarked) [Ibl-a],–,Percent Suppression (P.S.) [1]: 64%
"CCCCC[C@@H](O)/C=C/[C@H]1[C@@H]2Oc3cccc(OCC(=O)O)c3O[C@@H]2C[C@@H]1O (relative stereo) [Iba-b, [(1R*,2S*,3aR*,9aS*)-2-hydroxy-1-[(3R*,1E)-3-hydroxy-1-octenyl]-2,3,3a,9a-tetrahydro-1H-cyclopenta[b][1,4]benzodioxin-5-yl]oxyacetic acid]",–,inhibition in vivo at 0.1 mg/kg [2]: 30%
COC(=O)COc1cccc2c1OC1CC(O)C(C=CC(O)CC(C)Oc3ccccc3)C1O2 (centres unmarked) [Ibm-a],58%,–
CCCCC(C)CC(O)C=CC1C(O)CC2Oc3c(OCC(=O)O)cccc3OC21 (centres unmarked) [Ibe-b],80%,–
CCCCC(C)CC(O)CCC1C(O)CC2Oc3c(OCC(=O)OC)cccc3OC21 (centres unmarked) [Ifd-a],–,Percent Suppression (P.S.) [1]: 66%
COC(=O)COc1cccc2c1OC1CC(O)C(C=CC(O)CC(C)COc3ccccc3)C1O2 (centres unmarked) [Ibo-a],63%,–
CCCCC(C)CC(O)C=CC1C(O)CC2Oc3c(OCC(=O)OC)cccc3OC21 (centres unmarked) [Ibd-a],–,Percent Suppression (P.S.) [1]: 91%
CCCCC(C)CC(O)CCC1C(O)CC2Oc3c(OCC(=O)OC)cccc3OC21 (centres unmarked) [Ife-a],–,Percent Suppression (P.S.) [1]: 91%
CCCCC(C)CC(O)C=CC1C(O)CC2Oc3c(OCC(=O)O)cccc3OC21 (centres unmarked) [Ibd-b],–,Percent Suppression (P.S.) [1]: 74%
CCC#CCC[C@@H](O)/C=C/[C@H]1[C@@H]2Oc3cccc(OCC(=O)OC)c3O[C@@H]2C[C@@H]1O (relative stereo) [Ibc-a],29%,–
"CCCCC[C@@H](O)CC[C@H]1[C@@H]2Oc3cccc(OCC(=O)OC)c3O[C@@H]2C[C@@H]1O (relative stereo) [Ifa-a, methyl[(1R*,2S*,3aR*,9aS*)-2-hydroxy-1-[(R*)-3-hydroxyoctyl]-2,3,3a,9a-tertahydro-1H-cyclopenta[b][1,4]benzodioxin-5-oxyacetate]",27%,–
CCCCC(C)CC(O)C=CC1C(O)CC2Oc3c(OCC(=O)OC)cccc3OC21 (centres unmarked) [Ibe-a],–,"Percent Suppression (P.S.) [1]: 96%; inhibition in vivo at 0.03 mg/kg (CRJ-SD rats, oral, 30 μg/kg, 30 min before HCl-ethanol): 99%"
"CCCCC[C@H](O)/C=C/[C@H]1[C@@H]2Oc3cccc(OCC(=O)OC)c3O[C@@H]2C[C@@H]1O (relative stereo) [Ida-a, methyl [(1R*,2S*,3aR*,9aS*)-2-hydroxy-1-[(3S*,1E)-3-hydroxy-1-octenyl]-2,3,3a,9a-tetrahydro-1H-cyclopenta[b][1,4]benzodioxin-5-yl]oxyacetate]",37%,–
COC(=O)COc1cccc2c1O[C@@H]1C[C@H](O)[C@@H](/C=C/[C@H](O)C3CCCCC3)[C@@H]1O2 (relative stereo) [Ibb-a],63%,–

SMILES,inhibition in vivo at 0.03 mg/kg [1],other results
O=C(O)COc1cccc2c1O[C@@H]1C[C@H](O)[C@@H](/C=C/[C@@H](O)C3CCCCC3)[C@@H]1O2 (relative stereo) [Idb-b],25%,–
COC(=O)COc1cccc2c1O[C@@H]1C[C@H](O)[C@@H](CC[C@H](O)CC3CCCCC3)[C@@H]1O2 (relative stereo) [Ifj-a],25%,–
CCC#CCC[C@@H](O)/C=C/[C@H]1[C@@H]2Oc3cccc(OCC(=O)O)c3O[C@@H]2C[C@@H]1O (relative stereo) [Ibc-b],14%,–
O=C(O)COc1cccc2c1O[C@@H]1C[C@H](O)[C@@H](/C=C/[C@H](O)C3CCCCC3)[C@@H]1O2 (relative stereo) [Ibb-b],25%,–
COC(=O)COc1cccc2c1O[C@@H]1C[C@H](O)[C@@H](CC[C@H](O)C3CCCCC3)[C@@H]1O2 (relative stereo) [Ifb-a],78%,–
CC(C)=CCCC(C)CC(O)C=CC1C(O)CC2Oc3c(OCC(=O)O)cccc3OC21 (centres unmarked) [Ibk-b],70%,–
O=C(O)COc1cccc2c1O[C@@H]1C[C@H](O)[C@@H](CC[C@H](O)C3CCCCC3)[C@@H]1O2 (relative stereo) [Ifb-b],75%,–
CC(C)=CCCC(C)CC(O)C=CC1C(O)CC2Oc3c(OCC(=O)O)cccc3OC21 (centres unmarked) [Ibl-b],–,Percent Suppression (P.S.) [1]: 83%
CCCCC(C)CC(O)C=CC1C(O)CC2Oc3c(OCC(=O)OC)cccc3OC21 (centres unmarked) [Ide-a],–,Percent Suppression (P.S.) [1]: 37%
"CCCCC[C@H](O)/C=C/[C@H]1[C@@H]2Oc3cccc(OCC(=O)O)c3O[C@@H]2C[C@@H]1O (relative stereo) [Ida-b, [(1R*,2S*,3aR*,9aS*)-2-hydroxy-1-[(3S*,1E)-3-hydroxy-1-octenyl]-2,3,3a,9a-tetrahydro-1H-cyclopenta[b][1,4]benzodioxin-5-yl]oxyacetic acid]",–,inhibition in vivo at 0.1 mg/kg [2]: 19%
CCCCC[C@@H](O)/C=C/[C@H]1[C@@H]2Oc3cccc(OCC(=O)OC)c3O[C@@H]2C[C@@H]1O (relative stereo) [Iba-a],36%,–
COC(=O)COc1cccc2c1O[C@@H]1C[C@H](O)[C@@H](CC[C@H](O)C3CCCC3)[C@@H]1O2 (relative stereo) [Ifi-a],52%,–
COC(=O)COc1cccc2c1O[C@@H]1C[C@H](O)[C@@H](/C=C/[C@H](O)C3CCCC3)[C@@H]1O2 (relative stereo) [Ibi-a],41%,–
"CCCCC[C@H](O)/C=C/[C@@H]1[C@H]2CC(SCCCC(=O)OC)=N[C@H]2C[C@H]1O [Hoe892, reference compound]",–,"Percent Suppression (P.S.) (reference compound, 300 μg/Kg, strain not stated): 28%"
CCCCC(C)(C)[C@@H](O)/C=C/[C@H]1[C@@H]2Oc3cccc(OCC(=O)OC)c3O[C@@H]2C[C@@H]1O (relative stereo) [Ibg-a],15%,–
